Values quoted from earlier work, collected in publication PMC9667546, “Selective Inhibition of Bruton’s Tyrosine Kinase by a Designed Covalent Ligand Leads to Potent Therapeutic Efficacy in Blood Cancers Relative to Clinically Used Inhibitors” (ACS Pharmacology & Translational Science, 2022).

Experiments:
TEC = molecular target: T1, TEC (Homo sapiens, UniProt P42680); conditions: Table S3 heat map; ref SI 1-19; cited from earlier work
T1 construct: host or cells: HEK296T (so in the source)
T1 sequence (P42680 1-631): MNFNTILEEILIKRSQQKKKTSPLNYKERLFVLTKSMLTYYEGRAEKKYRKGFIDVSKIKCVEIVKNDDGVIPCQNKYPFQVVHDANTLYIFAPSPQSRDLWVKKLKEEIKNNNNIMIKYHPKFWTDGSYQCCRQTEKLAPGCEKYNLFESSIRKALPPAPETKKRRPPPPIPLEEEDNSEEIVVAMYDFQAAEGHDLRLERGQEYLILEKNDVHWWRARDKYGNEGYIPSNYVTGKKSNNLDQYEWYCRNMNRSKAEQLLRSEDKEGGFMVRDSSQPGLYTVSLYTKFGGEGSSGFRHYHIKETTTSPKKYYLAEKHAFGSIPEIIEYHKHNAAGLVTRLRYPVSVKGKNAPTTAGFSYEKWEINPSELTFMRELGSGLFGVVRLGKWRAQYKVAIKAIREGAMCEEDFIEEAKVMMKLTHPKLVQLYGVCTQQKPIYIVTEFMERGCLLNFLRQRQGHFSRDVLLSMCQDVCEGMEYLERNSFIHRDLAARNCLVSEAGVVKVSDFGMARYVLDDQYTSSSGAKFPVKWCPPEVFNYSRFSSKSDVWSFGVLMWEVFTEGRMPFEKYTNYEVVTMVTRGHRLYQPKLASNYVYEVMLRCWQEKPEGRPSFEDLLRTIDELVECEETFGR

EGFR = molecular target: T2, EGFR (Homo sapiens, UniProt P00533); conditions: Table S3 heat map; ref SI 1-19; cited from earlier work
T2 construct: host or cells: HEK296T (so in the source)
T2 sequence (P00533 25-1210): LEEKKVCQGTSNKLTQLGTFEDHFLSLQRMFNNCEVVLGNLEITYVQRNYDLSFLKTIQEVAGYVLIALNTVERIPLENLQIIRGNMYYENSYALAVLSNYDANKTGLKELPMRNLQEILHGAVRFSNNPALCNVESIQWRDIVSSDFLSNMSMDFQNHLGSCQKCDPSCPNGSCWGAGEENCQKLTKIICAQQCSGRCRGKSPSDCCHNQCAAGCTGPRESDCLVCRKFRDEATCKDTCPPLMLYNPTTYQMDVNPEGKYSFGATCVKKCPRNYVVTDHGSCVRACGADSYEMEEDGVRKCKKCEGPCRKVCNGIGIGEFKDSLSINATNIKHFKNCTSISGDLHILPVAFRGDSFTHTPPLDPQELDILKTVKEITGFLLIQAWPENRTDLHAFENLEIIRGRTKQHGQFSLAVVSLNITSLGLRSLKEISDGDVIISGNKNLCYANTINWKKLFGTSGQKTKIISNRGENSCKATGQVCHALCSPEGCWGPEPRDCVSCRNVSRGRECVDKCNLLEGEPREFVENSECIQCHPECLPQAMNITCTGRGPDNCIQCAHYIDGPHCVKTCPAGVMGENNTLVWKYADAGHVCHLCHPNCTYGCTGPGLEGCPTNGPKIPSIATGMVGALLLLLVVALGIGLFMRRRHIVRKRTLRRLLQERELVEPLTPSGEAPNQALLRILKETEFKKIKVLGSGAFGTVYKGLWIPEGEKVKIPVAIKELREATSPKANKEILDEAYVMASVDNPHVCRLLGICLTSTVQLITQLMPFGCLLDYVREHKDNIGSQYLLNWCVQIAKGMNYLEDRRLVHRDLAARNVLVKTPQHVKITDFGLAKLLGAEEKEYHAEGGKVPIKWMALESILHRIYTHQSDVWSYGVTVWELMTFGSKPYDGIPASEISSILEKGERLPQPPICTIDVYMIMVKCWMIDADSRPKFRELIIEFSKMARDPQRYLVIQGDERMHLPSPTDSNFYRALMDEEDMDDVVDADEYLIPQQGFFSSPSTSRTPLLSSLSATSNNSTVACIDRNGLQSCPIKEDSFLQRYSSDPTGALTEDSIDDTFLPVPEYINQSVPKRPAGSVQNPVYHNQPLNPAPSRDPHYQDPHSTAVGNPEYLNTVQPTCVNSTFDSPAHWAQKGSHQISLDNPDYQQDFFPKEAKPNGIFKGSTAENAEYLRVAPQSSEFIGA

JAK3 = molecular target: T3, JAK3 (Homo sapiens, UniProt P52333); conditions: Table S3 heat map; ref SI 1-19; cited from earlier work
T3 construct: host or cells: HEK296T (so in the source)
T3 sequence (P52333 whole entry): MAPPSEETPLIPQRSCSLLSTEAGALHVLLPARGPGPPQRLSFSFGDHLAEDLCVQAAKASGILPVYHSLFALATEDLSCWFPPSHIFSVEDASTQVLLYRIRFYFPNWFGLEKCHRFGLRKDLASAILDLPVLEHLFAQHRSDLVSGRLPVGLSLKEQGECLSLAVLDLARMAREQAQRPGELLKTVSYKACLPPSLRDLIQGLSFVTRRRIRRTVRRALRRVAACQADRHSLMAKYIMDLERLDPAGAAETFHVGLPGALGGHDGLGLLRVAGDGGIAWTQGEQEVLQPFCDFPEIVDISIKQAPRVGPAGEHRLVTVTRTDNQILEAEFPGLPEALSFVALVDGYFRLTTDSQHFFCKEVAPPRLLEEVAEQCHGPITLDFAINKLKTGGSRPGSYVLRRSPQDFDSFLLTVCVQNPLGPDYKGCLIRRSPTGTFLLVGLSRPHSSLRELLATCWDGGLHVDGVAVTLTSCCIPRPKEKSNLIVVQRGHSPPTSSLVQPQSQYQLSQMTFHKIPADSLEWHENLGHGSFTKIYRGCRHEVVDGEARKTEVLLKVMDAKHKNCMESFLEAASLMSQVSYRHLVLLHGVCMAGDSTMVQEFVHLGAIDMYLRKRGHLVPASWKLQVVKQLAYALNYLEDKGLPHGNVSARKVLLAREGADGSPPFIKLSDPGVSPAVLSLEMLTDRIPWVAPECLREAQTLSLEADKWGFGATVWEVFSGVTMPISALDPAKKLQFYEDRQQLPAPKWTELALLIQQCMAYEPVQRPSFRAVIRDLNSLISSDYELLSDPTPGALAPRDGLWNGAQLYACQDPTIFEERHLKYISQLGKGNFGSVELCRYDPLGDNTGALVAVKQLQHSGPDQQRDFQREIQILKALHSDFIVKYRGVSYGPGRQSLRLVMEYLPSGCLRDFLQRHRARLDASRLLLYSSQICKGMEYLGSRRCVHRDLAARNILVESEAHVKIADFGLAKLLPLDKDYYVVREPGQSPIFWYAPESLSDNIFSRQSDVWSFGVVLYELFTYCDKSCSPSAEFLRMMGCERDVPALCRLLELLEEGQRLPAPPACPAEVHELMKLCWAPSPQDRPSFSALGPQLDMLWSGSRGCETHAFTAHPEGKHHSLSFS

BTK = BTK (Homo sapiens, UniProt Q06187); design: purchased Promega Corporation V2941; conditions: Table S3 heat map; ref SI 1-19; read-out: IC50, BTK; cited from earlier work
Chain of BTK (Q06187 whole entry): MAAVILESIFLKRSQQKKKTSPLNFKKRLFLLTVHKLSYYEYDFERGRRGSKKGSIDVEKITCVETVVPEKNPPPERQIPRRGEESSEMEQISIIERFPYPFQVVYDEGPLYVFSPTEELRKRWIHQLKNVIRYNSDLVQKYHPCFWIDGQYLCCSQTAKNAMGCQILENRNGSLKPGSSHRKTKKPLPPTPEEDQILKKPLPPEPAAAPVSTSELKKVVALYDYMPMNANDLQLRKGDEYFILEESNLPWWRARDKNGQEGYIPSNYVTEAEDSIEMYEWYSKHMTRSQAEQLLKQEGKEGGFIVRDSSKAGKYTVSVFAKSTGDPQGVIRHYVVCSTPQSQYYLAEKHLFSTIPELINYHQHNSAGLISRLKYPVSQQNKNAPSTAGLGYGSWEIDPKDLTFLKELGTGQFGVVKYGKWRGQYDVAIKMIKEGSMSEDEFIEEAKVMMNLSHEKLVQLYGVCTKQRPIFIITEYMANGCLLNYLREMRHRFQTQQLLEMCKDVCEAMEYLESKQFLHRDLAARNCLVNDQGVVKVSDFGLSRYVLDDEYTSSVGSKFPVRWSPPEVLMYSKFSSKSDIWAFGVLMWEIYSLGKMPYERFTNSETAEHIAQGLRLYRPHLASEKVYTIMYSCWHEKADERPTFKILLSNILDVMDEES

ITK = molecular target: T4, ITK (Homo sapiens, UniProt Q08881); conditions: Table S3 heat map; ref SI 1-19; cited from earlier work
T4 construct: host or cells: HEK296T (so in the source)
T4 sequence (Q08881 1-620): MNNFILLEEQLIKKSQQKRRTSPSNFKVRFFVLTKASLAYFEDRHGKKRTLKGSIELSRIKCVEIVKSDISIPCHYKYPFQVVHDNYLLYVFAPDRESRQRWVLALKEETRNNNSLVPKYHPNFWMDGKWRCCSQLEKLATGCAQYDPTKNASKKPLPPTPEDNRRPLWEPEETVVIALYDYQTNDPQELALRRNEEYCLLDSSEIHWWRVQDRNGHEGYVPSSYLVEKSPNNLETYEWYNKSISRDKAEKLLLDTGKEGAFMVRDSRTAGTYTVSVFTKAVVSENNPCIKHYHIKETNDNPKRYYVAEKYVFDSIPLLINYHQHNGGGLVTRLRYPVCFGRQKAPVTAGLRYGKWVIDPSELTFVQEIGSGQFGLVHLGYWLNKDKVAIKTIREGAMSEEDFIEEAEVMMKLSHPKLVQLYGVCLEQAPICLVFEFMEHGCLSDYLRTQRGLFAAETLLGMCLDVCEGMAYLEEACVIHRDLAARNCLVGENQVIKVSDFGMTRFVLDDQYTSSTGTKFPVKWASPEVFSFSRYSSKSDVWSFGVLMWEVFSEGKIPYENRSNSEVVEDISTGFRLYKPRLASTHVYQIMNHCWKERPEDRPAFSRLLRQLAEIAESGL

Her2 = conditions: read-out: IC50, Her2; Table S3 heat map; ref SI 1-19; cited from earlier work
TXK = molecular target: T5, TXK (Homo sapiens, UniProt P42681); conditions: Table S3 heat map; ref SI 1-19; cited from earlier work
T5 construct: host or cells: HEK296T (so in the source)
T5 sequence (P42681 1-527): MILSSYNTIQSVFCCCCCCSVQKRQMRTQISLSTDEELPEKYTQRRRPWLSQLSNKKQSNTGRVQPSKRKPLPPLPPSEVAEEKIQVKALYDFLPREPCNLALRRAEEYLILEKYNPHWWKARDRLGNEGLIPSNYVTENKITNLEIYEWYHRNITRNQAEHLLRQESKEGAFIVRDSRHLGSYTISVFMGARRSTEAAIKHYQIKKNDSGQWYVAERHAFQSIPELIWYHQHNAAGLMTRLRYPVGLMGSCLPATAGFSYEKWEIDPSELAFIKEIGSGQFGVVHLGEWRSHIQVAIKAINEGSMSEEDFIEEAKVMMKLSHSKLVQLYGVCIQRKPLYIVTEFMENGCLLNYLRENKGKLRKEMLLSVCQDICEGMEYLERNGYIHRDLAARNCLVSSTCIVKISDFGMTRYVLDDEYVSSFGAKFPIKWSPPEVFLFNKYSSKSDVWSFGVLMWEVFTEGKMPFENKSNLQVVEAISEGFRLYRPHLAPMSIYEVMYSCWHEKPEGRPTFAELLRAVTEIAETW

CC#CC(=O)N1CC[C@@H](n2cc(-c3ccc(Oc4c(F)cccc4F)cc3)c3c(N)n[nH]c(=O)c32)C1 [TG-1701]
IC50 (TEC): 0.004 µM
IC50 (EGFR): 0.27 µM
IC50 (JAK3): > 3 µM
IC50 (BTK): 0.003 µM
IC50 (ITK): > 3 µM
IC50 (Her2): > 3 µM
IC50 (TXK): 0.136 µM
